Source: patent US20230096897A1, “Lymphocyte Population and Methods for Producing Same” (AVM Biotechnology, LLC, priority 2020, published 2023)
Entries after “also recorded” stand apart in the source; their conditions may differ. Read-outs that look alike come from different tables or passages of the source.

Tests used:
A20 cells = assay: In vitro apoptosis of A20 cells; type: cell-based, mouse; details: 72 hours after high dose dexamethasone treatment in vitro
[1] = tested on: peripheral blood lymphocytes
Description: For initial lymphodepletion studies, naïve C57Bl/6 mice were treated with 18 mg/kg HED DP by oral gavage. Male C57BL/6 mice were obtained from Taconic Bioscience (Germantown, N.Y.) and acclimated to laboratory conditions for at least one week. […] When mice reached study timepoint, they were euthanized as follows. Mice were anesthetized with isoflurane gas. Once anesthetized, blood was drawn via cardiac puncture and place immediately in heparin-lined microtubes. 10 mL of 5 U/mL of Heparin/PBS was used for infused by slow push for retrograde perfusion via the abdominal aorta to flush out all remaining blood from the vasculature. […] The remaining blood was sent to Phoenix Labs (Mukilteo, Wash.) for Complete Blood Counts and Clinical Chemistries

AVM-NKT cells = details: for Time after treatment at which AVM-NKT cells appear in peripheral blood: high doses of glucocorticoid receptor agonists
A20 B cell lymphoma [2] = assay: A20 B-cell lymphoma models, summary of studies; type: in vivo, mouse
Source text: The mouse A20 lymphoma model is a very aggressive tumor model because it employs multiple direct (expression of immunoinhibitory molecule PD-L1, IDO, and IL-10, and lack of expression of CD80 costimulatory molecule) and indirect (downregulation of APC function and induction of Treg cells) immune evasion mechanisms. In addition, in the studies described in the following, AVM0703 was not dosed until A20 tumors were very well-established, at between ˜120 to 400 mm^3 in volume.
Male BALB/c mice were inoculated subcutaneously in the flank with A20 B lymphoma cells embedded in Matrigel. Tumor volumes were monitored by caliper measurements, and when the tumors were well established at about 150 mm^3, or very well established for study “AVM_CANMOD_05” at about 400 mm^3, mice were treated with AVM0703 at HED doses of 7, 18, 22, or 25 mg/kg. Endpoint is typically defined as tumor volume of 1500 mm^3.
These mice were pooled and a contingency table analysis was performed using Fisher's exact test.

A20 B cell lymphoma [3] = assay: A20 lymphoma study AVM_CANMOD_01 (repeat dosing); type: in vivo, mouse
A20 B cell lymphoma [4] = assay: A20 lymphoma study AVM_CANMOD_03 (dose response); type: in vivo, mouse
Description: In a second study (“AVM_CANMOD_03”), BALB/c mice (n=5 per group) were dosed with increasing concentrations of AVM0703 HED DP (7, 18, and 26 mg/kg) on Days 9, 16, 24, and 31 after tumor inoculation. Treatment started when the tumors were approximately […], as opposed to well-established tumors of 150 mm^3 as in study AVM_CANMOD_01.
Based on evidence of pseudogrowth in tumors from AVM0703-treated mice in study AVM_CANMOD_01, tumors (n=2 per group) were sent to HistoTox Labs for slicing and immunohistochemistry. Hematoxylin and eosin stains identified several regions of necrosis and the slides were scored from 0 to 5 depending on severity.

A20 B cell lymphoma [5] = assay: A20 lymphoma study AVM_CANMOD_05, endpoint analysis subset; type: in vivo, mouse
female NOD mice [6] = assay: Prevention or delay of hyperglycemia in spontaneously diabetic female NOD mice; type: in vivo, mouse; details: for First Onset of hyperglycemia (weeks of age): dosing from 10 weeks of age, AVM0703 single oral HED 18 or 30 mg/kg, cyclosporine 5 then 10 mg/kg twice weekly, venetoclax 25 mg/kg; for % Hyperglycemic at 22 wks of age / Median Time to diabetes (days after 10 wks of age): same groups
Description: Female NOD mice were ordered at 9 weeks of age.
Body weights and blood glucose levels were monitored weekly. Body condition was monitored three times per week. Oral glucose tolerance was determined in all surviving mice who reached 30 weeks of age. Remaining mice were necropsied and autoreactive lymphocytes in the pancreas and adjacent lymph nodes were determined by flow cytometry. Pancreatitis was determined by H&E staining (8 out of 15 per group). Pancreatic Beta cell surface area was measured by staining for insulin. […] Pancreas and pancreas lymph nodes were examined for autoreactive, insulin-specific CD4+ T cells by using a magnetic enrichment method together with tetramer reagents.

female NOD mice [7] = assay: Reversal of early onset and established diabetes in female NOD mice; details: mouse, in vivo
Description: Female NOD mice are ordered at 9 weeks of age. Blood glucose levels are measured weekly starting at 10 weeks of age. Once a mouse has non-fasting blood glucose above 250 mg/dl, another measure is taken the following day.
For reversal of new-onset diabetes AVM0703 dosing is started one day after a mouse has had two consecutive days of elevated non-fasting blood glucose levels. Insulin pellets are implanted subcutaneously on the second day of elevated blood glucose levels. For reversal of established diabetes, two consecutive weeks of elevated blood glucose are measured, insulin pellets are implanted on day 8 after the first day of measured elevated blood glucose levels and AVM0703 is dosed on day 14 after the first day of measured elevated blood glucose levels.

A20 B cell lymphoma [8] = assay: A20 lymphoma study AVM_CANMOD_05, lymphodepletion subset
[9] = tested on: CCRF-CEM human T cell lymphoma; assay: CCRF-CEM human T cell lymphoma xenograft in NCr nude mice (AVM_CANMOD_06)
Description: A pilot study (“AVM_CANMOD_06”) was performed to investigate anti-tumor efficacy of AVM0703 in a human T cell lymphoma model, CCRF-CEM.
Tumor volume was assessed 3 times per week and endpoint was defined as either a tumor volume greater than 1500 mm^3 or greater than a 20% loss from initial body weight measurement.

[10] = pharmacodynamic (biologic) half-life; cited from earlier work
[11] = tested on: peripheral blood mononuclear cells or single cell splenocytes; assay: In vitro apoptosis of mouse blood mononuclear cells and splenocytes; type: cell-based; details: up to 500 micromolar; out to 72 hours
Description: Mononuclear cells from peripheral blood of naïve male C57Bl/6 mice or single cell splenocytes were incubated with equivalent concentrations of AVM0703 as the peak blood concentrations of acute high dose AVM0703 achieve in vivo.
Blood and spleens were taken from naïve C57B16 mice. Mononuclear cells were isolated from blood and single cell splenocytes were isolated from the spleen. […] Therefore, the complete in vivo T and B lymphocyte ablation appears to be mediated by the AVM-NKT, and not a receptor based mechanism such as activation of a glucocorticoid receptor.

[12] = tested on: CD3high, CD45dim, CD49b+ cells; assay: Venetoclax pre-treatment before high dose DSP in female NOD mice; type: in vivo, mouse; details: 48 hours
Description: Female NOD mice of 10 weeks of age are treated with 12.5 mg/kg up to 50 mg/kg venetoclax 6-18 hours before oral gavage of a HED 30 mg/kg DSP dose. […] CD3high, CD45dim, CD49b+ cells are reduced from—70 cells/microliter with DSP alone to—40 cells/microliter with 12.5 mg/kg venetoclax pretreatment, to—20 cells/microliter with 25 mg/kg venetoclax pretreatment, to—15 cells/microliter with 50 mg/kg venetoclax pretreatment. Venetoclax is a Bcl-2 inhibitor.

[13] = high-dose dexamethasone, naïve mice
[14] = 18, 22, and 25 mg/kg pooled, n = 40

## C[C@@H]1C[C@H]2[C@@H]3CCC4=CC(=O)C=C[C@]4(C)[C@@]3(F)[C@@H](O)C[C@]2(C)[C@@]1(O)C(=O)CO [dexamethasone]
A20 cells
  Apoptosis of A20 cells: about 30%
[1]; 18 mg/kg HED DP
  Platelet numbers: spared; also recorded: does not affect
[1]; 18 mg/kg HED DP, 6 hours to 35 days
  Number of live hematopoietic stem cells: does not significantly alter
[1]; [13]
  Basophils: reduced only at the 6 hour time point
  Eosinophils: reduced only at the 24 and 48 hour time points
  HSCs and MSCs: spared or increased
  RBCs: spared
AVM-NKT cells
  Time after treatment at which AVM-NKT cells appear in peripheral blood: around 48 hours
AVM-NKT cells; normal mice, after dexamethasone dosing
  Time to induction of AVM-NKT cells in the spleen: ≤ 48 h

## C[C@@H]1C[C@H]2[C@@H]3CCC4=CC(=O)C=C[C@]4(C)[C@@]3(F)[C@@H](O)C[C@]2(C)[C@@]1(O)C(=O)CO [AVM0703, dexamethasone]
A20 B cell lymphoma [2]; 18 mg/kg, n = 15
  HistoTox Labs Necrosis H&E (0-5), Average: 2.7 n = 15
A20 B cell lymphoma [2]; 18 mg/kg, n = 18
  MetaMorph Area of Live Tumor, Average: 66^ n = 18 AU × 1000
  MetaMorph Percent Necrotic, Average: 59 n = 18%
A20 B cell lymphoma [2]; 22 mg/kg, n = 11
  MetaMorph Area of Live Tumor, Average: 87 n = 11 AU × 1000
  MetaMorph Percent Necrotic, Average: 53 n = 11%
A20 B cell lymphoma [2]; 25 mg/kg, n = 11
  MetaMorph Area of Live Tumor, Average: 77 n = 11 AU × 1000
  MetaMorph Percent Necrotic, Average: 63 n = 11%
A20 B cell lymphoma [2]; [14]
  MetaMorph Area of Live Tumor, Average: 75 n = 40 AU × 1000
  MetaMorph Percent Necrotic, Average: 59 n = 40%
A20 B cell lymphoma [3]; after 46 days and 8 doses, n=5
  Mice reaching the 20% body weight loss threshold: One mouse
A20 B cell lymphoma [3]; repeat 18 mg/kg HED DP dosing, up to 7 doses
  Body weight: Does Not Reduce Body Weight
A20 B cell lymphoma [4]; 7, 18, 26 mg/kg
  Sudden deaths: no sudden deaths
A20 B cell lymphoma [4]; 7, 18, 26 mg/kg, at euthanization
  Spleen, thymus, colon, pancreas weights: No significant differences
A20 B cell lymphoma [4]; 18 and 26 mg/kg, not significant
  Additional median survival compared with placebo: approximately 6 days
A20 B cell lymphoma [4]; A20-3 DRC, 18&26 mg/kg
  Tumor necrosis: 18&26 mg/kg 50-80% necrotic
A20 B cell lymphoma [5]; 1 mouse treated at 18 mg/kg
  Tumor resorbed: 99.5%
A20 B cell lymphoma [5]; both subsets of AVM_CANMOD_05
  Overall complete response rate: 9%
A20 B cell lymphoma [5]; individual mice, 18 mg/kg
  MetaMorph Area of Live Tumor: 27 AU × 1000
  MetaMorph Percent Necrotic: 69%
Female NOD mice [6]; AVM0703 alone
  Mice with significantly delayed onset: 60%
Female NOD mice [6]; AVM0703 alone, 5 month study
  Mice in which diabetes was prevented: 40%
Female NOD mice [6]
  First Onset of hyperglycemia (weeks of age): 20 weeks of age
  % Hyperglycemic at 22 wks of age: 60%
  Median Time to diabetes (days after 10 wks of age): 113 days
Female NOD mice [6]; throughout the 5 month study
  Body condition compared with all other groups: significantly better body condition
Female NOD mice [7]
  Body weight loss or poor body condition: without the body weight loss or poor body condition
A20 B cell lymphoma [8]; 18 mg/kg HED, did not reach hypoglycemic levels
  Glucose levels: significantly reduced
A20 B cell lymphoma [8]; 25 mg/kg, placebo example 0.54 g
  Tumor weight, tumor example: 0.086 g
A20 B cell lymphoma [8]; 25 mg/kg, placebo example 956 mm^3
  Tumor volume, tumor example: 203.25 mm^3
A20 B cell lymphoma [8]; tumor model
  Glucose levels: not elevated
[9]; 18 mg/kg weekly
  Day after tumor inoculation on which one mouse was found dead: 89 days
[9]; one treated mouse
  Tumor lysis: Significant tumor lysis; also recorded: Evidence of Tumor Lysis Syndrome

## C[C@H]1C[C@H]2[C@@H]3CCC4=CC(=O)C=C[C@]4(C)[C@@]3(F)[C@@H](O)C[C@]2(C)[C@@]1(O)C(=O)CO [betamethasone]
AVM-NKT cells
  Time after treatment at which AVM-NKT cells appear in peripheral blood: around 48 hours

## C[C@]12C=CC(=O)C=C1CC[C@@H]1[C@@H]2C(=O)C[C@@]2(C)[C@H]1CC[C@]2(O)C(=O)CO [prednisone]
[10]
  Biologic half-life: about 20 hours

## C[C@@H]1C[C@H]2[C@@H]3CCC4=CC(=O)C=C[C@]4(C)[C@@]3(F)[C@@H](O)C[C@]2(C)[C@@]1(O)C(=O)CO [dexamethasone base]
AVM-NKT cells; 15 mg/kg HED
  Induction of AVM-NKT cells (dose escalation): particularly robust production
AVM-NKT cells; 6+6 mg/kg HED dosing schedule
  Induction of AVM-NKT cells (dose escalation): particularly robust production
AVM-NKT cells; single dose between 6-12 mg/kg HED
  Induction of AVM-NKT cells (dose escalation): can induce AVM-NKT cells

## C[C@@H]1C[C@H]2[C@@H]3CCC4=CC(=O)C=C[C@]4(C)[C@@]3(F)[C@@H](O)C[C@]2(C)[C@@]1(O)C(=O)COP(=O)(O)O [dexamethasone phosphate, reference compound]
[11]
  Apoptosis: no in vitro apoptosis was observed
A20 B cell lymphoma [4]; 7, 18, 25 mg/kg DP vs placebo
  Tumor CD3 expression (immunohistochemistry): visually decreased
  Tumor NKp46 staining: visual increase
A20 B cell lymphoma [4]; individual tumors, 18 mg/kg, tumor 158 mm^3 at dosing
  HistoTox Labs Necrosis H&E (0-5): greatest degree of necrosis

## CC1(C)CCC(CN2CCN(c3ccc(C(=O)NS(=O)(=O)c4ccc(NCC5CCOCC5)c([N+](=O)[O-])c4)c(Oc4cnc5[nH]ccc5c4)c3)CC2)=C(c2ccc(Cl)cc2)C1 [Venetoclax, venetoclax, reference compound]
[12]; 12.5 mg/kg venetoclax 6-18 hours before HED 30 mg/kg DSP
  CD3high, CD45dim, CD49b+ cells mobilized into the blood: 40 cells/microliter
[12]; 25 mg/kg venetoclax 6-18 hours before HED 30 mg/kg DSP
  CD3high, CD45dim, CD49b+ cells mobilized into the blood: 20 cells/microliter
[12]; 50 mg/kg venetoclax 6-18 hours before HED 30 mg/kg DSP
  CD3high, CD45dim, CD49b+ cells mobilized into the blood: 15 cells/microliter
Female NOD mice [6]
  First Onset of hyperglycemia (weeks of age): 14 weeks of age
  % Hyperglycemic at 22 wks of age: 90%
  Median Time to diabetes (days after 10 wks of age): 51 days
